Patent publication US20200157048A1, “(2E,4E)-5-PHENYL-PENTA-2,4-DIEN-1-ONE DERIVATIVE” (BIOWAY., INC, priority 2018, published 2020)
“Also recorded” adds a separate entry of the source.

Legend:
Fgf21 mRNA = experiment: qRT-PCR Fgf21 mRNA level in steatosis-induced Huh-7 cells; type: cell-based, Human; conditions: steatosis-induced (OA/PA) Huh-7 cells; 10 μM; 24 hours
Method: In Experimental Example 5, the Huh-7 cells were plated in 6 wells at 4×10^5 cells/mL and incubated under an atmosphere containing 5% CO2 at 37° C.
One day later, the cell density approached about 80 to 90%. The medium was changed to an FBS-free RPMI1640 medium, and incubated under an atmosphere containing 5% CO2 at 37° C. for 24 hours.
Huh-7 cells of each well, excluding control cells, were pretreated with an OA/PA mixture for one hour to induce steatosis. The control cells were pretreated with 1% FA-free BSA.
Each well was treated with 10 μM of a test compound, and then the cells were incubated for 24 hours. The control cells and OA/PA-treated cells were treated with DMSO. Cells of a positive control were treated with 10 μM of resveratrol, 10 μM of piperine, and 10 μM of YU2014. The medium was entirely aspirated, and the cells were washed with PBS (phosphate buffered saline, Corning, Manassas, Va., USA) two times.
Total RNA was extracted using a RNeasy RNA isolation kit (Qiagen, Hilden, Germany).
10 μL of β-mercaptoethanol (Sigma-Aldrich) per 1 mL of lysis buffer was added, thereby preparing an RNA lysis buffer. […]
An RNA concentration was measured at O.D. 260 nm using a nanophotometer N60 (Implen, Munich, Germany). The concentration and purity of RNA were measured at O.D. 260/280 nm and calculated as a ratio. […]
Quantitative analyses for the genes in Table 3 were performed.

CK2 = target: T1, CK2 (Homo sapiens, UniProt P68400); experiment: CK2 kinase assay (CycLex CK2 kinase assay/inhibitor screening kit); type: biochemical; conditions: 20 μM
T1 construct: purchased New England Biolabs (Ipswich, Mass., USA)
Method: All materials were provided from a CycLex CK2 kinase assay/inhibitor screening kit (Medical and Biological Laboratories CO., LTD, Nagoya, Japan).
All specimens were prepared in triplicate.
10 μL of a diluted sample was added to a 96-well plate placed on ice.
Three wells having 10 μL of a CK2α positive control (2 unit/μL) were included as a positive control in each analysis method. CK2α was purchased from New England Biolabs (Ipswich, Mass., USA).
A phosphorylation reaction was initiated by adding 90 μL of a phosphorylation reaction buffer to each well, and the 96-well plate was covered with a plate cover. The plate was incubated at 30° C. for 30 minutes. Each well was washed with a washing buffer five times, and it was confirmed whether each well was completely filled. With gentle tapping, a residual washing solution was removed.
100 μL of HRP-conjugated detection antibodies were added to each well, and the plate was covered with a plate cover. While the plate was incubated at room temperature (25 to 30° C.) for 30 minutes, the remaining HRP-conjugated detection antibodies after use were removed. Each well was washed five times, and the residual washing buffer was removed with gentle tapping. […]
Absorbance at dual wavelengths of 450/540 nm was measured for each well using Cytation 5. Data was analyzed.

T1 sequence (P68400 whole entry): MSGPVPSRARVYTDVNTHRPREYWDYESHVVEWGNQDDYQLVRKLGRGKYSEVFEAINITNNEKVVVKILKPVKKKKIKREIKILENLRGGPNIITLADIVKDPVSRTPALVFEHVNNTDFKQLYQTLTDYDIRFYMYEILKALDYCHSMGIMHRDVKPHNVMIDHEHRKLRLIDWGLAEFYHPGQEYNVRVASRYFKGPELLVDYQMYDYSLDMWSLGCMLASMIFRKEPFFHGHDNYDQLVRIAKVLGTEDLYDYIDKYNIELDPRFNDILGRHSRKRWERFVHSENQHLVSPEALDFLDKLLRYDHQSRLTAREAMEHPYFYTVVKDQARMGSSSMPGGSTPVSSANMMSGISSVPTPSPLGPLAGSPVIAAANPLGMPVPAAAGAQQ
T1 sequence (P67870 whole entry partner): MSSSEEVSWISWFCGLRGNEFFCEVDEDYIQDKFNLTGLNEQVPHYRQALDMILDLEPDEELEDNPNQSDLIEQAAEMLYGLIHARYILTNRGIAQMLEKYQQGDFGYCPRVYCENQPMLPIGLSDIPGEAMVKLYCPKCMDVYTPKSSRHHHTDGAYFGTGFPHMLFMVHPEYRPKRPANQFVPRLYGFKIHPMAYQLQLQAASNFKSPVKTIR

With `CSc1ccc(/C=C/C=C/C(=O)N2CCCCC2)cc1` [YU2014, (2E,4E)-5-(4-(methylthio)phenyl)-1-(piperidine-1-yl)penta-2,4-dien-1-one] the “Fgf21 mRNA level (FIG. 12)” value (Fgf21 mRNA) was “almost no increase; also recorded: no effect” and the “CK2 activity (FIG. 21)” value (CK2) was “did not have a CK2 activity reducing effect”.
